From PubChem BioAssay (NCI)
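48-hour exposure; five concentrations; linearly interpolated endpoints. TGI is the concentration that stops growth completely.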

Key:
Experiment in all cases: NCI-60 cell line screen, 48 h
CCRF-CEM leukemia = tested on: CCRF-CEM leukemia
HCC-2998 colon = tested on: HCC-2998 colon
786-0 renal = tested on: 786-0 renal
EKVX NSCLC = tested on: EKVX NSCLC
LOX IMVI melanoma = tested on: LOX IMVI melanoma
SNB-19 CNS = tested on: SNB-19 CNS
ACHN renal = tested on: ACHN renal
UO-31 renal = tested on: UO-31 renal
KM12 colon = tested on: KM12 colon
HT29 colon = tested on: HT29 colon
MDA-MB-435 = tested on: MDA-MB-435
RPMI-8226 leukemia = tested on: RPMI-8226 leukemia
CAKI-1 renal = tested on: CAKI-1 renal
SK-MEL-5 melanoma = tested on: SK-MEL-5 melanoma
DU-145 prostate = tested on: DU-145 prostate
MOLT-4 leukemia = tested on: MOLT-4 leukemia
HCT-116 colon = tested on: HCT-116 colon
A498 renal = tested on: A498 renal
MCF7 breast = tested on: MCF7 breast
RXF 393 renal = tested on: RXF 393 renal
HOP-62 NSCLC = tested on: HOP-62 NSCLC
NCI/ADR-RES ovarian = tested on: NCI/ADR-RES ovarian
SN12C renal = tested on: SN12C renal
SK-MEL-28 melanoma = tested on: SK-MEL-28 melanoma
SNB-75 CNS = tested on: SNB-75 CNS
T-47D breast = tested on: T-47D breast
PC-3 prostate = tested on: PC-3 prostate
OVCAR-5 ovarian = tested on: OVCAR-5 ovarian
NCI-H460 lung = tested on: NCI-H460 lung
HL-60(TB) leukemia = tested on: HL-60(TB) leukemia
A549 NSCLC = tested on: A549 NSCLC
SW-620 colon = tested on: SW-620 colon
MDA-N = tested on: MDA-N
NCI-H522 lung = tested on: NCI-H522 lung
HCT-15 colon = tested on: HCT-15 colon
SR leukemia = tested on: SR leukemia
SK-OV-3 ovarian = tested on: SK-OV-3 ovarian
OVCAR-3 ovarian = tested on: OVCAR-3 ovarian
SK-MEL-2 melanoma = tested on: SK-MEL-2 melanoma
M14 melanoma = tested on: M14 melanoma
UACC-62 melanoma = tested on: UACC-62 melanoma
NCI-H23 lung = tested on: NCI-H23 lung
SF-295 CNS = tested on: SF-295 CNS
K-562 leukemia = tested on: K-562 leukemia
BT-549 breast = tested on: BT-549 breast
NCI-H226 lung = tested on: NCI-H226 lung
OVCAR-8 ovarian = tested on: OVCAR-8 ovarian
HS 578T breast = tested on: HS 578T breast
TK-10 renal = tested on: TK-10 renal
COLO 205 colon = tested on: COLO 205 colon
U251 CNS = tested on: U251 CNS
OVCAR-4 ovarian = tested on: OVCAR-4 ovarian
IGROV1 ovarian = tested on: IGROV1 ovarian
HOP-92 NSCLC = tested on: HOP-92 NSCLC
UACC-257 melanoma = tested on: UACC-257 melanoma
SF-268 CNS = tested on: SF-268 CNS
MDA-MB-231 breast = tested on: MDA-MB-231 breast
MALME-3M melanoma = tested on: MALME-3M melanoma
SF-539 CNS = tested on: SF-539 CNS

Measured: TGI

O=C1OC(c2ccccc2)=N/C1=C\c1ccc(Cl)cc1
> 100 µM: CCRF-CEM leukemia | HCC-2998 colon | 786-0 renal | EKVX NSCLC | LOX IMVI melanoma | SNB-19 CNS | ACHN renal | UO-31 renal | KM12 colon | HT29 colon | MDA-MB-435 | RPMI-8226 leukemia | CAKI-1 renal | SK-MEL-5 melanoma | DU-145 prostate | MOLT-4 leukemia | HCT-116 colon | A498 renal | MCF7 breast | RXF 393 renal | HOP-62 NSCLC | NCI/ADR-RES ovarian | SN12C renal | SK-MEL-28 melanoma | SNB-75 CNS | T-47D breast | PC-3 prostate | OVCAR-5 ovarian | NCI-H460 lung | HL-60(TB) leukemia | A549 NSCLC | SW-620 colon | MDA-N | NCI-H522 lung | HCT-15 colon | SR leukemia | SK-OV-3 ovarian | OVCAR-3 ovarian | SK-MEL-2 melanoma | M14 melanoma | UACC-62 melanoma | NCI-H23 lung | SF-295 CNS | K-562 leukemia | BT-549 breast | NCI-H226 lung | OVCAR-8 ovarian | HS 578T breast | TK-10 renal | COLO 205 colon | U251 CNS | OVCAR-4 ovarian | IGROV1 ovarian | HOP-92 NSCLC | UACC-257 melanoma | SF-268 CNS | MDA-MB-231 breast

Cc1ccc(NC(=O)c2cc(S(=O)(=O)Nc3n[nH]c(=O)n3-c3ccccc3)c(S)cc2Cl)cc1
> 100 µM: HCC-2998 colon | 786-0 renal | EKVX NSCLC | LOX IMVI melanoma | SNB-19 CNS | UO-31 renal | KM12 colon | HT29 colon | MDA-MB-435 | RPMI-8226 leukemia | CAKI-1 renal | SK-MEL-5 melanoma | DU-145 prostate | MOLT-4 leukemia | HCT-116 colon | A498 renal | MCF7 breast | RXF 393 renal | NCI/ADR-RES ovarian | SN12C renal | SK-MEL-28 melanoma | SNB-75 CNS | T-47D breast | PC-3 prostate | OVCAR-5 ovarian | NCI-H460 lung | HL-60(TB) leukemia | A549 NSCLC | SW-620 colon | MDA-N | NCI-H522 lung | HCT-15 colon | SR leukemia | SK-OV-3 ovarian | OVCAR-3 ovarian | SK-MEL-2 melanoma | M14 melanoma | UACC-62 melanoma | MALME-3M melanoma | NCI-H23 lung | K-562 leukemia | BT-549 breast | NCI-H226 lung | OVCAR-8 ovarian | SF-539 CNS | HS 578T breast | TK-10 renal | COLO 205 colon | U251 CNS | OVCAR-4 ovarian | IGROV1 ovarian | HOP-92 NSCLC | UACC-257 melanoma | SF-268 CNS | MDA-MB-231 breast

Cc1cc(C)c2c(c1)CC1(Cc3c(ccc(C)c3C)C1=O)C2=O (stereo not drawn)
> 100 µM: CCRF-CEM leukemia | HCC-2998 colon | 786-0 renal | EKVX NSCLC | SNB-19 CNS | ACHN renal | UO-31 renal | KM12 colon | HT29 colon | MDA-MB-435 | RPMI-8226 leukemia | CAKI-1 renal | SK-MEL-5 melanoma | DU-145 prostate | MOLT-4 leukemia | HCT-116 colon | A498 renal | MCF7 breast | RXF 393 renal | NCI/ADR-RES ovarian | SN12C renal | SK-MEL-28 melanoma | SNB-75 CNS | T-47D breast | PC-3 prostate | OVCAR-5 ovarian | NCI-H460 lung | HL-60(TB) leukemia | A549 NSCLC | SW-620 colon | MDA-N | NCI-H522 lung | HCT-15 colon | SR leukemia | SK-OV-3 ovarian | OVCAR-3 ovarian | SK-MEL-2 melanoma | M14 melanoma | UACC-62 melanoma | MALME-3M melanoma | NCI-H23 lung | SF-295 CNS | K-562 leukemia | BT-549 breast | NCI-H226 lung | OVCAR-8 ovarian | SF-539 CNS | HS 578T breast | TK-10 renal | U251 CNS | OVCAR-4 ovarian | IGROV1 ovarian | HOP-92 NSCLC | UACC-257 melanoma | SF-268 CNS | MDA-MB-231 breast
